Laboratory results from US7595401B2, “Therapeutic compounds and their use in cancer” (Myriad Pharmaceuticals, Inc., priority 2006, dated 2009).

Target: purified human Hsp90
Assay: Binding Assay: fluorescence polarization with BODIPY-labeled geldanamycin
Settings: BODIPY-GM 10 nM, Hsp90 30 nM
How it was run: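 Fluorescence polarization competition with BODIPY-geldanamycin (10 nM final) and human Hsp90 (30 nM final) in HEPES-KOH pH 7.3 buffer with molybdate, NP-40, DTT; 2% DMSO, overnight at room temperature. Read 485/530 nm; percent inhibition from mP normalized to DMSO controls, fluorescent-compound points excluded.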

SMILES	IC50 [nM]	% Inhibition at 5 μM Compound Concentration [%]
CC1(C)CC(CCn2c(Sc3cc4c(cc3Br)OCO4)nc3c(N)ncnc32)CC(C)(C)N1 [Example 354, 8-[(6-Bromo-1,3-benzodioxol-5-yl)thio]-9-[2-(2,2,6,6-tetramethylpiperidin-4-yl)ethyl]-9H-purin-6-amine]	250	
COc1ccc(OC)c(Sc2nc3c(N)ncnc3n2CCc2ccc(O)cc2)c1 [Example 75, 4-{2-[6-Amino-8-(2,5-dimethoxy-phenylsulfanyl)-purin-9-yl]-ethyl}-phenol]	2900	
COc1ccc(OC)c(Sc2nc3c(N)ncnc3n2CCN2CCN(C)CC2)c1 [Example 631, 8-[(2,5-Dimethoxyphenyl)thio]-9-[2-(4-methylpiperazin-1-yl)ethyl]-9 H-purin-6-amine]	2000	
O=c1[nH]cnc2c1nc(Sc1ccc3c(c1)OCO3)n2CCc1ccccc1 [Example 224, 8-(Benzo[1,3]dioxol-5-ylsulfanyl)-9-phenethyl-1,9-dihydro-purin-6-one]	> 5000	
CC(C)(C)n1nnnc1N1CCC(CCn2c(Sc3cc4c(cc3Br)OCO4)nc3c(N)ncnc32)CC1 [Example 614, 8-[(6-Bromo-1,3-benzodioxol-5-yl)thio]-9-{2-[1-(1-tert-butyl-1 H-tetrazol-5-yl)piperidin-4-yl]ethyl}-9 H-purin-6-amine]	1800	
CC(=O)N1CCCC(CCn2cnc(N)c3nc(Sc4cc5c(cc4Br)OCO5)nc2-3)C1 (stereo not drawn) [Example 401, 3-[2-(1-Acetylpiperidin-3-yl)ethyl]-8-[(6-bromo-1,3-benzodioxol-5-yl)thio]-3H-purin-6-amine]		2
Nc1ncnc2c1nc(Sc1cc3c(cc1Br)OCO3)n2CCc1ccc2ccccc2c1 [Example 302, 8-[(6-Bromo-1,3-benzodioxol-5-yl)thio]-9-[2-(2-naphthyl)ethyl]-9H-purin-6-amine]	> 25000	
Nc1ncnc2c1nc(Sc1cc3c(cc1Br)OCO3)n2CCC1CCN(C(=O)[C@@H](O)CO)CC1 [Example 771, (2S)-3-[4-(2-{6-amino-8-[(6-bromo-1,3-benzodioxol-5-yl)thio]-9H-purin-9-yl}ethyl)piperidin-1-yl]-3-oxopropane-1,2-diol]	120	
COc1cccc(Sc2nc3c(N)ncn(CC(=O)c4ccccc4)c-3n2)c1 [Example 299, 2-{6-Amino-8-[(3-methoxyphenyl)thio]-3H-purin-3-yl}-1-phenylethanone]		0.0
C[C@H](NC(=O)OC(C)(C)C)C(=O)N1CCCC(CCn2c(Sc3cc4c(cc3Br)OCO4)nc3c(N)ncnc32)C1 (stereo partly drawn) [Example 703, tert-Butyl{(1S)-2-[3-(2-{6-amino-8-[(6-bromo-1,3-benzodioxol-5-yl)thio]-9H-purin-9-yl}ethyl)piperidin-1-yl]-1-methyl-2-oxoethyl}carbamate]	190	
COc1ccc(F)cc1Sc1nc2c(N)ncn(CCc3ccccc3)c-2n1 [Example 313, 8-[(5-Fluoro-2-methoxyphenyl)thio]-3-(2-phenylethyl)-3H-purin-6-amine]		3.0
COc1ccc(OC)c(Sc2nc3c(N)ncnc3n2CCN2CCNC(=O)C2)c1 [Example 634, 4-(2-{6-Amino-8-[(2,5-dimethoxyphenyl)thio]-9 H-purin-9-yl}ethyl)piperazin-2-one]	8100	
CC(C)(C)OC(=O)N1CC[C@H](CCn2cnc(N)c3nc(Sc4cc5c(cc4Br)OCO5)nc2-3)C1 [Example 420, tert-Butyl (3S)-3-(2-{6-amino-8-[(6-bromo-1,3-benzodioxol-5-yl)thio]-3 H-purin-3-yl}ethyl)pyrrolidine-1-carboxylate]		7
CC(=O)N1CCC(CCn2c(Sc3cc4c(cc3Br)OCO4)nc3c(N)ncnc32)CC1 [Example 364, 9-[2-(1-Acetylpiperidin-4-yl)ethyl]-8-[(6-bromo-1,3-benzodioxol-5-yl)thio]-9H-purin-6-amine]	102	
Nc1ncnc2c1nc(S(=O)(=O)c1ccc(Cl)cc1)n2CCc1ccccc1 [Example 17, 8-(4-Chloro-phenylsulfonyl)-9-phenethyl-9H-purin-6-ylamine]	> 10000	
